Source: publication PMC9669016, “First-in-human phase Ia study of the PI3Kα inhibitor CYH33 in patients with solid tumors” (Nature Communications, 2022)
Where two headings read alike, the source gives them in different places.

Test: Clinical pharmacokinetics: plasma CYH33 and I27 by LC/MS/MS
Assay type: in vivo, human
Details: for AUC(0-t) / Cmax / Tmax / concentration at 0.5 h / concentration at 24 h / concentration at 72 h / concentration at 4 h / concentration at 12 h / concentration at 0 h / AUC(0-inf) / half-life: human, plasma; for AUC(0-inf): read-out: AUC0-∞, mean (CV%)
Experimental: The PK characteristics of CYH33 and its active metabolite I27 were evaluated after single and multiple dose administrations. PK data were obtained from 37 patients from 7 dose cohorts: 1 mg (n = 1), 5 mg (n = 1), 10 mg (n = 2), 20 mg (n = 6), 30 mg (n = 12), 40 mg (n = 13), and 60 mg (n = 2). Intensive and sparse PK sampling was performed. Prior to initiating a continuous daily treatment cycle, the first 5 patients participated in a single dose PK treatment period with a 7-day washout in order to determine the terminal-phase half-life (t1/2) of CYH33 and its active metabolite I27. Based on the single dose PK data for CYH33 of the first 5 patients at doses of 1, 5, 10 and 20 mg, the PK and metabolic characteristics of CYH33 and I27 were evaluated. Combined with the pre-specified rules in the protocol and deliberation from the SMC, subsequent patients directly entered the continuous dose phase.
Blood samples for PK evaluation were collected at: (1) during the single dose phase: on day 1 pre-dose and 0.5, 1, 2, 4, 8, 12, 24, 36, 48, and 72 h post-dose; (2) during the continuous dose phase: C1D1/Cycle 1 Day 28 pre-dose, and 0.5, 1, 2, 3, 4, 6, 8, 12, and 24 h post-dose; and C1D8/Day 15 pre-dose. Plasma concentrations of CYH33 and I27 were analyzed using a liquid chromatography-tandem mass spectrometry (LC/MS/MS) assay (Shimadzu Corporation, LC-30AD) with a lower limit of quantification (LLOQ) of 2.585 ng/mL and 1.0 ng/mL for CYH33 and I27, respectively. […] Blood samples for measuring the FBG level were collected within 30 min before dosing on C1D1, C1D15, and on the first day of subsequent treatment cycles.

[1] = CYH33, Cycle 1 Day 28, 1 mg (n=1)
[2] = CYH33, Cycle 1 Day 28, 5 mg (n=1)
[3] = CYH33, Cycle 1 Day 28, 10 mg (n=2)
[4] = CYH33, Cycle 1 Day 28, 20 mg (n=6)
[5] = CYH33, Cycle 1 Day 28, 30 mg (n=9)
[6] = CYH33, Cycle 1 Day 28, 40mg (n=7)
[7] = CYH33, Cycle 1 Day 28, 60 mg (n=2)

COC(=O)Nc1cc(C(F)(F)F)c(-c2nc(N3CCOCC3)c3cc(CN4CCN(S(C)(=O)=O)CC4)cn3n2)cn1 [CYH33, methyl (5-(6-((4-(methylsulfonyl)piperazin-1-yl)methyl)−4-morpholinopyrrolo[2,1-f][1,2,4]triazin-2-yl)−4-(trifluoromethyl)pyridin-2-yl)carbamate]
Cmin, mean [1]: 0 ng/mL
Rac_AUC, mean [1]: 2.0
Rac_Cmax, mean [1]: 1.0
CLss/F, mean [2]: 8.6 L/h
Cmin, mean [2]: 15.1 ng/mL
Rac_AUC, mean [2]: 2.2
Rac_Cmax, mean [2]: 2.3
CLss/F, mean [3]: 8.2 L/h
Cmin, mean [3]: 33.4 ng/mL
Rac_AUC, mean [3]: 2.0
Rac_Cmax, mean [3]: 1.8
CLss/F, mean [4]: 8.1 L/h
Cmin, mean [4]: 80.8 ng/mL
Rac_AUC, mean [4]: 4.2
Rac_Cmax, mean [4]: 3.3
CLss/F, mean [5]: 11.0 L/h
Cmin, mean [5]: 111.4 ng/mL
Rac_AUC, mean [5]: 2.9
Rac_Cmax, mean [5]: 1.9
CLss/F, mean [6]: 11.8 L/h
Cmin, mean [6]: 126.5 ng/mL
Rac_AUC, mean [6]: 4.3
Rac_Cmax, mean [6]: 3.2
CLss/F, mean [7]: 15.9 L/h
Cmin, mean [7]: 133.2 ng/mL
Rac_AUC, mean [7]: 3.2
Rac_Cmax, mean [7]: 2.2
average accumulation of exposure (AUC0-24h) at steady state vs Cycle 1 Day 1 (daily dosing): around 2.9 fold
time to steady state (daily dosing): ≤ 8 days
AUC(0-t) (oral, 1 mg, CYH33, Cycle 1 Day 1, 1 mg (n = 1), read-out: AUC0-24h, mean (CV%)): 26 ng·h/mL
Cmax (oral, 1 mg, CYH33, Cycle 1 Day 1, 1 mg (n = 1), read-out: Cmax, mean (CV%)): 4.6 ng/mL
Tmax (oral, 1 mg, CYH33, Cycle 1 Day 1, 1 mg (n = 1), read-out: Tmax, median (min-max)): 1 h
AUC(0-t) (oral, 1 mg, CYH33, Cycle 1 Day 28, 1 mg (n=1), read-out: AUC0-24h, mean): 51.6 ng·h/mL
Cmax (oral, 1 mg, CYH33, Cycle 1 Day 28, 1 mg (n=1), read-out: Cmax, mean): 4.8 ng/mL
Tmax (oral, 1 mg, CYH33, Cycle 1 Day 28, 1 mg (n=1), read-out: Tmax, median): 4 h
AUC(0-t) (oral, 5 mg, CYH33, Cycle 1 Day 1, 5 mg (n = 1), read-out: AUC0-24h, mean (CV%)): 266 ng·h/mL
Cmax (oral, 5 mg, CYH33, Cycle 1 Day 1, 5 mg (n = 1), read-out: Cmax, mean (CV%)): 24.6 ng/mL
Tmax (oral, 5 mg, CYH33, Cycle 1 Day 1, 5 mg (n = 1), read-out: Tmax, median (min-max)): 2 h
AUC(0-t) (oral, 5 mg, CYH33, Cycle 1 Day 28, 5 mg (n=1), read-out: AUC0-24h, mean): 582 ng·h/mL
Cmax (oral, 5 mg, CYH33, Cycle 1 Day 28, 5 mg (n=1), read-out: Cmax, mean): 56.2 ng/mL
Tmax (oral, 5 mg, CYH33, Cycle 1 Day 28, 5 mg (n=1), read-out: Tmax, median): 1 h
AUC(0-t) (oral, 10 mg, CYH33, Cycle 1 Day 1, 10 mg (n = 2), read-out: AUC0-24h, mean (CV%)): 624 ng·h/mL
Cmax (oral, 10 mg, CYH33, Cycle 1 Day 1, 10 mg (n = 2), read-out: Cmax, mean (CV%)): 43.1 ng/mL
Tmax (oral, 10 mg, CYH33, Cycle 1 Day 1, 10 mg (n = 2), read-out: Tmax, median (min-max)): 4 h
AUC(0-t) (oral, 10 mg, CYH33, Cycle 1 Day 28, 10 mg (n=2), read-out: AUC0-24h, mean): 1230 ng·h/mL
Cmax (oral, 10 mg, CYH33, Cycle 1 Day 28, 10 mg (n=2), read-out: Cmax, mean): 78.9 ng/mL
Tmax (oral, 10 mg, CYH33, Cycle 1 Day 28, 10 mg (n=2), read-out: Tmax, median): 3 h
AUC(0-t) (oral, 20 mg, CYH33, Cycle 1 Day 1, 20 mg (n = 5), read-out: AUC0-24h, mean (CV%)): 763 ng·h/mL
Cmax (oral, 20 mg, CYH33, Cycle 1 Day 1, 20 mg (n = 5), read-out: Cmax, mean (CV%)): 56.3 ng/mL
Tmax (oral, 20 mg, CYH33, Cycle 1 Day 1, 20 mg (n = 5), read-out: Tmax, median (min-max)): 2 h
AUC(0-t) (oral, 20 mg, CYH33, Cycle 1 Day 28, 20 mg (n=6), read-out: AUC0-24h, mean): 2630 ng·h/mL
Cmax (oral, 20 mg, CYH33, Cycle 1 Day 28, 20 mg (n=6), read-out: Cmax, mean): 154 ng/mL
Tmax (oral, 20 mg, CYH33, Cycle 1 Day 28, 20 mg (n=6), read-out: Tmax, median): 3 h
AUC(0-t) (oral, 30 mg, CYH33, Cycle 1 Day 1, 30 mg (n = 12), read-out: AUC0-24h, mean (CV%)): 1300 ng·h/mL
Cmax (oral, 30 mg, CYH33, Cycle 1 Day 1, 30 mg (n = 12), read-out: Cmax, mean (CV%)): 96.5 ng/mL
Tmax (oral, 30 mg, CYH33, Cycle 1 Day 1, 30 mg (n = 12), read-out: Tmax, median (min-max)): 3.5 h
AUC(0-t) (oral, 30 mg, CYH33, Cycle 1 Day 28, 30 mg (n=9), read-out: AUC0-24h, mean): 3530 ng·h/mL
Cmax (oral, 30 mg, CYH33, Cycle 1 Day 28, 30 mg (n=9), read-out: Cmax, mean): 187 ng/mL
Tmax (oral, 30 mg, CYH33, Cycle 1 Day 28, 30 mg (n=9), read-out: Tmax, median): 3 h
AUC(0-t) (oral, 40 mg, CYH33, Cycle 1 Day 1, 40 mg (n = 3), read-out: AUC0-24h, mean (CV%)): 1320 ng·h/mL
Cmax (oral, 40 mg, CYH33, Cycle 1 Day 1, 40 mg (n = 3), read-out: Cmax, mean (CV%)): 97.9 ng/mL
Tmax (oral, 40 mg, CYH33, Cycle 1 Day 1, 40 mg (n = 3), read-out: Tmax, median (min-max)): 2 h
AUC(0-t) (oral, 40 mg, CYH33, Cycle 1 Day 28, 40mg (n=7), read-out: AUC0-24h, mean): 3940 ng·h/mL
Cmax (oral, 40 mg, CYH33, Cycle 1 Day 28, 40mg (n=7), read-out: Cmax, mean): 224 ng/mL
Tmax (oral, 40 mg, CYH33, Cycle 1 Day 28, 40mg (n=7), read-out: Tmax, median): 4 h
AUC(0-t) (oral, 60 mg, CYH33, Cycle 1 Day 1, 60 mg (n = 4), read-out: AUC0-24h, mean (CV%)): 1870 ng·h/mL
Cmax (oral, 60 mg, CYH33, Cycle 1 Day 1, 60 mg (n = 4), read-out: Cmax, mean (CV%)): 123 ng/mL
Tmax (oral, 60 mg, CYH33, Cycle 1 Day 1, 60 mg (n = 4), read-out: Tmax, median (min-max)): 4 h
AUC(0-t) (oral, 60 mg, CYH33, Cycle 1 Day 28, 60 mg (n=2), read-out: AUC0-24h, mean): 4010 ng·h/mL
Cmax (oral, 60 mg, CYH33, Cycle 1 Day 28, 60 mg (n=2), read-out: Cmax, mean): 220 ng/mL
Tmax (oral, 60 mg, CYH33, Cycle 1 Day 28, 60 mg (n=2), read-out: Tmax, median): 2.5 h
concentration at 0.5 h (oral, C1D1, 1 mg): 1.9 ng/mL
concentration at 24 h (oral, C1D1, 1 mg): 0 ng/mL
concentration at 0.5 h (oral, C1D1, 5 mg): 0 ng/mL
concentration at 24 h (oral, C1D1, 5 mg): 5.9 ng/mL
concentration at 72 h (oral, C1D1, 5 mg): 0 ng/mL
concentration at 0.5 h (oral, C1D1, 10 mg): 14 ng/mL
concentration at 4 h (oral, C1D1, 10 mg): 43.1 ng/mL
concentration at 24 h (oral, C1D1, 10 mg): 17.4 ng/mL
concentration at 72 h (oral, C1D1, 10 mg): 3.2 ng/mL
concentration at 4 h (oral, C1D1, 20 mg): 43.9 ng/mL
concentration at 12 h (oral, C1D1, 20 mg): 29.5 ng/mL
concentration at 24 h (oral, C1D1, 20 mg): 22.3 ng/mL
concentration at 72 h (oral, C1D1, 20 mg): 7.1 ng/mL
concentration at 4 h (oral, C1D1, 30 mg): 81.2 ng/mL
concentration at 12 h (oral, C1D1, 30 mg): 49.9 ng/mL
concentration at 0.5 h (oral, C1D1, 40 mg): 33.8 ng/mL
concentration at 24 h (oral, C1D1, 40 mg): 45.2 ng/mL
concentration at 0.5 h (oral, C1D1, 60 mg): 21.9 ng/mL
concentration at 24 h (oral, C1D1, 60 mg): 61.4 ng/mL
concentration at 0 h (oral, C1D28, 1 mg): 0 ng/mL
concentration at 0 h (oral, C1D28, 5 mg): 15.5 ng/mL
concentration at 0 h (oral, C1D28, 10 mg): 34.8 ng/mL
concentration at 0 h (oral, C1D28, 20 mg): 85.1 ng/mL
concentration at 0 h (oral, C1D28, 30 mg): 113 ng/mL
concentration at 24 h (oral, C1D28, 30 mg): 124 ng/mL
concentration at 0 h (oral, C1D28, 40 mg): 141 ng/mL
concentration at 0 h (oral, C1D28, 60 mg): 147 ng/mL
AUC(0-inf) (oral, CYH33, Cycle 1 Day 1, 1 mg (n = 1)): 36.8 ng·h/mL
AUC(0-inf) (oral, CYH33, Cycle 1 Day 1, 5 mg (n = 1)): 429 ng·h/mL
half-life (oral, CYH33, Cycle 1 Day 1, 5 mg (n = 1), read-out: t1/2, mean (CV%) (converted)): 19.2 h
AUC(0-inf) (oral, CYH33, Cycle 1 Day 1, 10 mg (n = 2)): 1090 ng·h/mL
half-life (oral, CYH33, Cycle 1 Day 1, 10 mg (n = 2), read-out: t1/2, mean (CV%) (converted)): 20.2 h
AUC(0-inf) (oral, CYH33, Cycle 1 Day 1, 20 mg (n = 5)): 2190 ng·h/mL
half-life (oral, CYH33, Cycle 1 Day 1, 20 mg (n = 5), read-out: t1/2, mean (CV%) (converted)): 20.8 h
Tmax (po, dose range 1–60 mg, read-out: median time to maximum plasma concentration (Tmax)): 1 to 4 h
half-life (oral CYH33, read-out: t1/2 (converted)): ~20 h
